Source: publication PMC3428910 (Bioorganic & medicinal chemistry letters, 2006)

Target: T1, human glutathione reductase (hGR) (Homo sapiens, UniProt P00390)
T1 sequence (P00390 44-522): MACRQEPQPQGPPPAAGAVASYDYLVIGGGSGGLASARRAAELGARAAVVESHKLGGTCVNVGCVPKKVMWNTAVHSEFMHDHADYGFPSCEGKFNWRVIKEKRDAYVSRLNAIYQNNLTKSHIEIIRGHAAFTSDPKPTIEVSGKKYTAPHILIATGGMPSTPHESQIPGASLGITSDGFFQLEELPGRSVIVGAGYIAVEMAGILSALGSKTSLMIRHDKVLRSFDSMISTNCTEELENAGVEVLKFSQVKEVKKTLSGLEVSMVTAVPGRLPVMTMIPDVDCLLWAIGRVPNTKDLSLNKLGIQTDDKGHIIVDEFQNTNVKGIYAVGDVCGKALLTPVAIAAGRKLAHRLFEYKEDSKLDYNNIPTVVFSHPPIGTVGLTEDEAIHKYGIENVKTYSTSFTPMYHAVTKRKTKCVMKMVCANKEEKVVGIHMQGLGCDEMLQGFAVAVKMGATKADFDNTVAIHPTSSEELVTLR
Assay: Human glutathione reductase inhibition
Format: biochemical
Conditions: GR IC50/TR IC50

- Selectivity for TR: >4
SMILES: CC(C)(C)c1cc(CN2CCCCCC2)cc(C(C)(C)C)c1O [Compound 7c]
